This experiment has as its system CD8F1 mice, subcutaneous mammary adenocarcinoma, T/C%. Briefly: NCI In Vivo Anticancer Drug Screen. Data for tumor model Mammary Adenocarcinoma CD8F1 (subcutaneous) in CD8F1. The following applies: higher = larger tumour. The procedure, abridged: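 Antitumor activity is assessed in transplantable-tumor mice by comparing the treated group with a vehicle-treated control group. Survival or tumor size serves as the measure, reported as T divided by C.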

Setting [1] is: endpoint: median tumor weight (est.), dose: 6.25 mg/kg/injection, schedule: Q07DX005 (ip), vehicle: saline.
The mark [2] stands for this setting: endpoint: median tumor weight (est.), dose: 25.0 mg/kg/injection, schedule: Q07DX005 (ip), vehicle: saline.
Where [3] appears, read: endpoint: median tumor weight (est.), dose: 12.5 mg/kg/injection, schedule: Q07DX005 (ip), vehicle: saline with Tween-80.
[4] abbreviates: endpoint: median tumor weight (est.), dose: 25.0 mg/kg/injection, schedule: Q07DX005 (ip), vehicle: saline with Tween-80.
The mark [5] stands for this setting: endpoint: median tumor weight (est.), dose: 50.0 mg/kg/injection, schedule: Q07DX005 (ip), vehicle: saline with Tween-80.
The mark [6] stands for this setting: endpoint: median tumor weight (est.), dose: 100.0 mg/kg/injection, schedule: Q07DX005 (ip), vehicle: saline with Tween-80.

Values joined by “and” are separate entries in the source; they are usually repeats but may differ in a detail not shown here. Identical values can stand only once. Inconclusive results are not listed.

Here are results for 13 compounds from PubChem BioAssay AID220 (DTP/NCI, 2004).

As to `N=C(N)CCCCCCCCC(=N)N`, the T/C was 67 % of control (endpoint: median tumor weight (est.), dose: 3.12 mg/kg/injection, schedule: Q07DX005 (ip), vehicle: Klucel (hydroxypropylcellulose) (HPC)); 86 % of control (endpoint: median tumor weight (est.), dose: 3.12 mg/kg/injection, schedule: Q07DX005 (ip), vehicle: saline); 123 % of control (endpoint: median tumor weight (est.), dose: 6.25 mg/kg/injection, schedule: Q07DX005 (ip), vehicle: Klucel (hydroxypropylcellulose) (HPC)); 78 % of control under setting [1]; 34 % of control (endpoint: median tumor weight (est.), dose: 12.5 mg/kg/injection, schedule: Q07DX005 (ip), vehicle: Klucel (hydroxypropylcellulose) (HPC)); 76 % of control (endpoint: median tumor weight (est.), dose: 12.5 mg/kg/injection, schedule: Q07DX005 (ip), vehicle: saline). The T/C reads like this: (endpoint: median tumor weight (est.), dose: 25.0 mg/kg/injection, schedule: Q07DX005 (ip), vehicle: Klucel (hydroxypropylcellulose) (HPC)) 31 % of control; under setting [2], 28 % of control; (endpoint: median tumor weight change, dose: 8.0 mg/kg/injection, schedule: Q01DX001 (ip), vehicle: saline) 61 % of control; (endpoint: median tumor weight change, dose: 15.63 mg/kg/injection, schedule: Q01DX001 (ip), vehicle: saline) 77 % of control; (endpoint: median tumor weight change, dose: 16.0 mg/kg/injection, schedule: Q01DX001 (ip), vehicle: saline) 186 % of control; (endpoint: median tumor weight change, dose: 31.25 mg/kg/injection, schedule: Q01DX001 (ip), vehicle: saline) 76 % of control. Further, for the setting “endpoint: median tumor weight change, dose: 32.0 mg/kg/injection, schedule: Q01DX001 (ip), vehicle: saline”, the T/C is 48 % of control.

Regarding `NC(=O)c1[nH]nc(C2OC(CO)C(O)C2O)c1O` (centres undefined), the T/C is 123 % of control (endpoint: median tumor weight (est.), dose: 0.31 mg/kg/injection, schedule: Q07DX005 (ip), vehicle: saline); 85 % of control (endpoint: median tumor weight (est.), dose: 0.62 mg/kg/injection, schedule: Q07DX005 (ip), vehicle: saline); 77 % of control (endpoint: median tumor weight (est.), dose: 1.25 mg/kg/injection, schedule: Q07DX005 (ip), vehicle: saline); 28 % of control (endpoint: median tumor weight (est.), dose: 2.5 mg/kg/injection, schedule: Q07DX005 (ip), vehicle: saline); 53 % of control (endpoint: median tumor weight (est.), dose: 5.0 mg/kg/injection, schedule: Q07DX005 (ip), vehicle: saline); 29 % of control (endpoint: median tumor weight (est.), dose: 10.0 mg/kg/injection, schedule: Q07DX005 (ip), vehicle: saline).

As for `COC(=O)C(F)C(Br)C(=O)OC` (centres undefined), the T/C (endpoint: median tumor weight (est.), dose: 6.25 mg/kg/injection, schedule: Q07DX005 (ip), vehicle: saline with Tween-80) was 61 % of control; the T/C under setting [3] is 87 % of control; the T/C under setting [4] was 106 % of control; the T/C under setting [5] is 74 % of control; the T/C under setting [6] is 77 % of control.

On to `CC1=C(/C=C/C(C)=C/C=C/C(C)=C/CO)C(C)(C)CCC1`, for which the T/C (endpoint: median tumor weight (est.), dose: 8.0 mg/kg/injection, schedule: Q07DX005 (ip), vehicle: saline with Tween-80) is 195 % of control and the T/C (endpoint: median tumor weight (est.), dose: 32.0 mg/kg/injection, schedule: Q07DX005 (ip), vehicle: saline with Tween-80) was 118 % of control.

For `CN(C)CCC(=O)C(=Cc1ccc(O)cc1)C(=O)CCN(C)C`, the T/C is, setting by setting: (endpoint: median tumor weight change, dose: 50.0 mg/kg/injection, schedule: Q01DX001 (ip), vehicle: suspension in saline) 96 % of control; (endpoint: median tumor weight change, dose: 62.5 mg/kg/injection, schedule: Q01DX001 (ip), vehicle: saline) 90 % of control; (endpoint: median tumor weight change, dose: 100.0 mg/kg/injection, schedule: Q01DX001 (ip), vehicle: suspension in saline) 87 % of control; (endpoint: median tumor weight change, dose: 125.0 mg/kg/injection, schedule: Q01DX001 (ip), vehicle: saline) 62 % of control.

`COP12(OCCO1)SC(C(F)(F)F)=C(C(F)(F)F)S2`: the T/C is 210 % of control under setting [2]; 183 % of control (endpoint: median tumor weight (est.), dose: 50.0 mg/kg/injection, schedule: Q07DX005 (ip), vehicle: saline); 351 % of control (endpoint: median tumor weight (est.), dose: 100.0 mg/kg/injection, schedule: Q07DX005 (ip), vehicle: saline); 159 % of control (endpoint: median tumor weight (est.), dose: 200.0 mg/kg/injection, schedule: Q07DX005 (ip), vehicle: saline); 72 % of control (endpoint: median tumor weight (est.), dose: 400.0 mg/kg/injection, schedule: Q07DX005 (ip), vehicle: saline).

Regarding `CCC(=O)N(C)[C@@H](C)C(=O)O[C@H]1CC(=O)N(C)c2cc(cc(OC)c2Cl)C/C(C)=C/C=C[C@@H](OC)[C@@]2(O)C[C@H](OC(=O)N2)[C@@H](C)[C@@H]2O[C@@]12C`, the T/C runs as follows: (endpoint: median tumor weight (est.), dose: 7.5 micrograms/kg/injection, schedule: Q07DX005 (ip), vehicle: saline + alcohol) 210 % of control; (endpoint: median tumor weight (est.), dose: 15.0 micrograms/kg/injection, schedule: Q07DX005 (ip), vehicle: saline + alcohol) 112 % of control; (endpoint: median tumor weight (est.), dose: 30.0 micrograms/kg/injection, schedule: Q07DX005 (ip), vehicle: saline + alcohol) 84 % of control; (endpoint: median tumor weight (est.), dose: 60.0 micrograms/kg/injection, schedule: Q07DX005 (ip), vehicle: saline + alcohol) 98 % of control.

`CSc1ncnc2c1ncn2C1OC(CO)C(O)C1O` (centres undefined): the T/C runs as follows: (endpoint: median tumor weight change, dose: 16.0 mg/kg/injection, schedule: Q01DX001 (ip), vehicle: saline + alcohol) 67 % of control; (endpoint: median tumor weight change, dose: 31.0 mg/kg/injection, schedule: Q01DX001 (ip), vehicle: saline + alcohol) 82 % of control; (endpoint: median tumor weight change, dose: 62.0 mg/kg/injection, schedule: Q01DX001 (ip), vehicle: saline + alcohol) 52 % of control; (endpoint: median tumor weight change, dose: 62.5 mg/kg/injection, schedule: Q01DX001 (ip), vehicle: saline + alcohol) 79 % of control; (endpoint: median tumor weight change, dose: 125.0 mg/kg/injection, schedule: Q01DX001 (ip), vehicle: saline + alcohol) 52 % of control and 70 % of control; (endpoint: median tumor weight change, dose: 250.0 mg/kg/injection, schedule: Q01DX001 (ip), vehicle: saline + alcohol) 10 % of control and 12 % of control.

Regarding `COc1cc2cc(c1Cl)N1CC(O)C(C)(O)C(=O)NC(C)C(=O)OC(CC1=O)C1(C)OC1C(C)C1CC(O)(NC(=O)O1)C(OC)/C=C\C=C(\C)C2OC` (centres undefined), the T/C was 101 % of control (endpoint: median tumor weight change, dose: 8.0 micrograms/kg/injection, schedule: Q01DX001 (ip), vehicle: distilled water + alcohol); 111 % of control (endpoint: median tumor weight change, dose: 16.0 micrograms/kg/injection, schedule: Q01DX001 (ip), vehicle: distilled water + alcohol); 121 % of control (endpoint: median tumor weight change, dose: 64.0 micrograms/kg/injection, schedule: Q01DX001 (ip), vehicle: distilled water + alcohol).

With `CC(C)NC(=O)OCc1c(COC(=O)NC(C)C)c(-c2ccc(Cl)c(Cl)c2)n2c1CCC2`, the T/C is, setting by setting: (endpoint: median tumor weight (est.), dose: 12.5 mg/kg/injection, schedule: Q07DX005 (ip), vehicle: distilled water + Tween-80) 67 % of control; (endpoint: median tumor weight (est.), dose: 25.0 mg/kg/injection, schedule: Q07DX005 (ip), vehicle: distilled water + Tween-80) 120 % of control; (endpoint: median tumor weight (est.), dose: 50.0 mg/kg/injection, schedule: Q07DX005 (ip), vehicle: distilled water + Tween-80) 21 % of control; (endpoint: median tumor weight (est.), dose: 100.0 mg/kg/injection, schedule: Q07DX005 (ip), vehicle: distilled water + Tween-80) 6 % of control.

With `O=C1C=C(C2OC(CO)C(O)C2O)C(=O)N1` (centres undefined), the T/C was 73 % of control (endpoint: median tumor weight (est.), dose: 1.56 mg/kg/injection, schedule: Q07DX005 (ip), vehicle: saline) and 114 % of control under setting [1].

As to `Cc1ccc(NC(=O)Oc2ccc(Br)cc2Br)c([N+](=O)[O-])c1`, the T/C under setting [3] is 121 % of control; the T/C under setting [4] is 93 % of control; the T/C under setting [5] is 115 % of control; the T/C under setting [6] was 77 % of control; the T/C (endpoint: median tumor weight (est.), dose: 200.0 mg/kg/injection, schedule: Q07DX005 (ip), vehicle: saline with Tween-80) is 124 % of control; the T/C (endpoint: median tumor weight (est.), dose: 400.0 mg/kg/injection, schedule: Q07DX005 (ip), vehicle: saline with Tween-80) is 98 % of control. Moreover, the T/C by setting is: (endpoint: median tumor weight change, dose: 250.0 mg/kg/injection, schedule: Q01DX001 (ip), vehicle: saline with Tween-80) 52 % of control; (endpoint: median tumor weight change, dose: 500.0 mg/kg/injection, schedule: Q01DX001 (ip), vehicle: saline with Tween-80) 88 % of control; (endpoint: median tumor weight change, dose: 1000.0 mg/kg/injection, schedule: Q01DX001 (ip), vehicle: saline with Tween-80) 50 % of control; (endpoint: median tumor weight change, dose: 1800.0 mg/kg/injection, schedule: Q01DX001 (ip), vehicle: saline with Tween-80) 74 % of control; (endpoint: median tumor weight change, dose: 2000.0 mg/kg/injection, schedule: Q01DX001 (ip), vehicle: saline with Tween-80) 59 % of control; (endpoint: median tumor weight change, dose: 3600.0 mg/kg/injection, schedule: Q01DX001 (ip), vehicle: saline with Tween-80) 44 % of control.

In the case of `Nc1n[n+](-c2ccc(Cl)cc2)no1`, the T/C runs as follows: (endpoint: median tumor weight (est.), dose: 6.25 mg/kg/injection, schedule: Q07DX005 (ip), vehicle: water) 184 % of control; (endpoint: median tumor weight (est.), dose: 12.5 mg/kg/injection, schedule: Q07DX005 (ip), vehicle: water) 103 % of control; (endpoint: median tumor weight (est.), dose: 25.0 mg/kg/injection, schedule: Q07DX005 (ip), vehicle: water) 88 % of control.
